Literature values in patent US12503489B2, “Method for producing antibody-drug conjugate” (DAIICHI SANKYO COMPANY, LIMITED, priority 2017, dated 2025).

Target: T1, topoisomerase I (Homo sapiens, UniProt P11387)
T1 sequence (P11387 1-765): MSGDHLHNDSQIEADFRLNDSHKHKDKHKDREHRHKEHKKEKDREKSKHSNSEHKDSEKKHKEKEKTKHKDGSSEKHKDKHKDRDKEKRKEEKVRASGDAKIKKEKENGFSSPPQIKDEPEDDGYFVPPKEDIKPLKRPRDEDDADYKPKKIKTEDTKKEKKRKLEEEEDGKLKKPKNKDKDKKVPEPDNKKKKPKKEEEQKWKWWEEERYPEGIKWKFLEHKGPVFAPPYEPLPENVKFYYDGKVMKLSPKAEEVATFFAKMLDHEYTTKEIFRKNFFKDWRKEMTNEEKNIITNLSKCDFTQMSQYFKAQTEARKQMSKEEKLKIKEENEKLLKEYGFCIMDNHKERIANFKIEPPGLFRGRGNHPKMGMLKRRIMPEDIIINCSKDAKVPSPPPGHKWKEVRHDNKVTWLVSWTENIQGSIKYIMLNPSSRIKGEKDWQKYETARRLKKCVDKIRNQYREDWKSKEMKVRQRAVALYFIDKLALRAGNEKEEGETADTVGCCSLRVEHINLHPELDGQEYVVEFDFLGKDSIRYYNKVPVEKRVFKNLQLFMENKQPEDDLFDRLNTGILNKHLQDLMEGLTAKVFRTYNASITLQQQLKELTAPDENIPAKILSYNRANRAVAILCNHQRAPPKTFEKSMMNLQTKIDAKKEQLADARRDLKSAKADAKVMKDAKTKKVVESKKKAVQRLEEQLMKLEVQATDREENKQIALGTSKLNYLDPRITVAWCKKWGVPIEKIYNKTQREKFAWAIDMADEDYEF
Details: Ogitani Y. et al., Clinical Cancer Research 2016; 22 (20): 5097-5108

CC[C@@]1(O)C(=O)OCc2c1cc1n(c2=O)Cc2c-1nc1cc(F)c(C)c3c1c2[C@@H](NC(=O)CO)CC3 [formula (22)]
topoisomerase I inhibitory effect: confirmed to have a topoisomerase I inhibitory effect
